Values of other authors, collected in US9376461B2, “Non-enzymatic synthesis of O-acetyl-ADP-ribose and analogues thereof” (GlaxoSmithKline LLC, priority 2011, dated 2016).

Tested on: starfish oocyte maturation
Details: infusion (microinjection) of OAADPR, presumably as the mixture of 2′ and 3′ isomers

Substance: 2′- and 3′-O-Acetyl-ADP-ribose [OAADPR]
- effect on starfish oocyte maturation: delayed or halted
